Reference: US6608083B1, “Quinoline derivatives(2)” (SmithKline Beecham Farmaceutici S.p.A, priority 1994, dated 2003)
pKi: −log10 of the molar value. Where a name gives a salt, the structure may show the parent alone.

Columns and labels:
NK3 receptor = molecular target: T1, NK3 receptor (Cavia porcellus, UniProt P30098); experiment: Binding: displacement of [3H]-Senktide / [125I]-[Me-Phe7]-NKB, guinea-pig cortex membranes
T1 sequence (P30098 1-440): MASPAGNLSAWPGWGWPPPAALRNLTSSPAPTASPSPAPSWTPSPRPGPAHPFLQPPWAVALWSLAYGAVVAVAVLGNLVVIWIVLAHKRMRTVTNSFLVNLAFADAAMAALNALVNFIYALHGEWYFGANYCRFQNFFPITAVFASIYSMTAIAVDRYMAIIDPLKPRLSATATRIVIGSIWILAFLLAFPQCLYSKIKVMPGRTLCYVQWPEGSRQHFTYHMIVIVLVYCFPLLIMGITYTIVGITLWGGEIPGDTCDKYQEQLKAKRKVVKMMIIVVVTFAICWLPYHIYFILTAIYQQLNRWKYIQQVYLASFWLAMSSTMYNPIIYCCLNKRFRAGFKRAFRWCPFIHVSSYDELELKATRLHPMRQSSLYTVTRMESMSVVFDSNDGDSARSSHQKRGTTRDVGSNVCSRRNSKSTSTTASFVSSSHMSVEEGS
Description: The activity of the compounds of the present invention, as NK3 ligands, is determined by their ability to inhibit the binding of the radiolabelled NK3 ligands, [^125I]-[Me-Phe^7]-NKB or [^3H]-Senktide, to guinea-pig and human NK3 receptors (Renzetti et al, 1991, Neuropeptide, 18, 104-114; Buell et al, 1992, FEBS, 299(1), 90-95; Chung et al, 1994, Biochem. Biophys. Res. Commun., 198(3), 967-972). […] Binding assays provide for each compound tested a mean IC50 value of 2-5 separate experiments performed in duplicate or triplicate. […] The NK3-antagonist activity of the compounds of the present invention is determined by their ability to inhibit senktide-induced contraction of the guinea-pig ileum (Maggi et al, 1990, Br. J. PharmacoL, 101, 996-1000) and rabbit isolated iris sphincter muscle (Hall et al., 1991, Eur. J. PharmacoL, 199, 9-14) and human NK3 receptors-mediated Ca^++ mobilization (Mochizuki et al, 1994, J. Bio. Chem., 269, 9651-9658). Guinea-pig and rabbit in-vitro functional assays provide for each compound tested a mean KB value of 3-8 separate experiments, where KB is the concentration of the individual compound required to produce a 2-fold rightward shift in the concentration-response curve of senktide. Human receptor functional assay allows the determination of the concentration of the individual compound required to reduce by 50% (IC50 values) the Ca^++ mobilization induced by the agonist NKB.

Compound	melting point	pKi (NK3 receptor)
COC(=O)[C@H](NC(=O)c1cc(-c2ccccc2)nc2ccccc12)c1ccc(O)cc1.Cl	140 °C (dec.)	–
COC(=O)C(NC(=O)c1cc(-c2ccccc2)nc2ccccc12)C1=CCC=CC1 (stereo not shown) [Example 16]	120 to 122 °C	–
C[C@H](O)[C@H](NC(=O)c1cc(-c2ccccc2)nc2ccccc12)c1ccccc1 [Example 17, (R,S)-N-[α-(1-hydroxyethyl)benzyl]-2-phenylquinoline-4-carboxamide]	204 to 205 °C	–
CCC(NC(=O)c1c(OC)c(-c2ccccc2)nc2ccccc12)c1ccccc1 (stereo not shown) [Example 18]	163 to 165 °C	–
CCCCc1c(-c2ccccc2)nc2ccccc2c1C(=O)NC(CC)c1ccccc1 (stereo not shown) [Example 19]	147 to 150 °C	–
COC(=O)C(NC(=O)c1c2c(nc3ccccc13)-c1ccccc1CCC2)c1ccccc1 (stereo not shown) [Example 20]	186 to 188 °C	–
CCC(NC(=O)c1c(C)c(-c2ccccc2)nc2ccccc12)c1ccccc1 (stereo not shown) [Example 22]	–	8.25
COC(=O)C(NC(=O)c1cc(-c2ccccc2OC)nc2ccccc12)c1ccccc1 (stereo not shown) [Example 24]	124 to 125 °C	–
CCC(NC(=O)c1c(-c2ccccc2)c(-c2ccccc2)nc2ccccc12)c1ccccc1 (stereo not shown) [Example 25]	198 to 200 °C	–
COC(=O)C(NC(=O)c1cc(-c2ccccc2F)nc2ccccc12)c1ccccc1 (stereo not shown) [Example 26]	146 to 147 °C	–
CCC(NC(=O)c1cc(-c2ccccc2)nc2ccccc12)c1ccc(Cl)c(Cl)c1 (stereo not shown) [Example 27]	193 to 194 °C	–
O=C(NC(CO)c1ccccc1)c1cc(-c2ccccc2)nc2ccccc12 (stereo not shown) [Example 28]	117 to 119 °C	–
COC(=O)C(NC(=O)c1c(C)c(-c2ccccc2)nc2ccccc12)c1ccccc1 (stereo not shown) [Example 30]	180 to 181 °C	–
COC(=O)C(NC(=O)c1cc(-c2ccccc2)nc2cc(Cl)ccc12)c1ccccc1 (stereo not shown) [Example 32]	180 to 183 °C	–
COC(=O)C(NC(=O)c1cc(-c2ccccc2)nc2ccc(C)cc12)c1ccccc1 (stereo not shown) [Example 33]	179 to 181 °C	–
COCC(NC(=O)c1cc(-c2ccccc2)nc2ccccc12)c1ccccc1 (stereo not shown) [Example 34]	144 to 145 °C	–
COC(=O)C(NC(=O)c1cc(-c2ccccc2)nc2ccc(Cl)cc12)c1ccccc1 (stereo not shown) [Example 35]	197 to 199 °C	–
CCc1c(-c2ccccc2)nc2ccccc2c1C(=O)NC(C(=O)OC)c1ccccc1 (stereo not shown) [Example 36]	156 to 157 °C	–
CCCC(NC(=O)c1cc(-c2ccccc2)nc2ccccc12)c1ccccc1 (stereo not shown) [Example 37]	149 to 150 °C	–
CCc1c(-c2ccccc2)nc2ccccc2c1C(=O)NC(CC)c1ccccc1 (stereo not shown) [Example 38]	158 to 159 °C	–
CCC(NC(=O)c1c(N2C(=O)c3ccccc3C2=O)c(-c2ccccc2)nc2ccccc12)c1ccccc1 (stereo not shown) [Example 39]	201 to 202 °C	–
CCCc1c(-c2ccccc2)nc2ccccc2c1C(=O)NC(CC)c1ccccc1 (stereo not shown) [Example 40]	149 to 151 °C	–
CCC(NC(=O)c1c(C)c(-c2ccc(Br)cc2)nc2ccc(Br)cc12)c1ccccc1 (stereo not shown) [Example 41]	230 to 231 °C	–
CCC(NC(=O)c1c(C)c(-c2ccccc2)nc2ccc(Br)cc12)c1ccccc1 (stereo not shown) [Example 42]	179 to 180 °C	–
COC(=O)C(NC(=O)c1cc(-c2ccccc2)nc2ccc(OC)cc12)c1ccccc1 (stereo not shown) [Example 43]	209 to 211 °C	–
COC(=O)C(NC(=O)c1cc(-c2cc3ccccc3o2)nc2ccccc12)c1ccccc1 (stereo not shown) [Example 44]	240 to 241 °C	–
O=C(NC(Cc1ccccc1)c1ccccc1)c1cc(-c2ccccc2)nc2ccccc12 (stereo not shown) [Example 45]	194 to 196 °C	–
O=C(NC(c1ccccc1)C(F)(F)F)c1cc(-c2ccccc2)nc2ccccc12 (stereo not shown) [Example 46]	180 to 181 °C	–

More lines, now with the values ahead:

melting point	pKi (NK3 receptor)	Compound
203 to 205 °C	–	O=C(NC(C(=O)O)c1ccccc1)c1cc(-c2ccccc2)nc2ccccc12 (stereo not shown) (as salt: HCl) [Example 92]
132 to 134 °C	8.06	CCC(NC(=O)c1c(OC)c(-c2ccccc2)nc2ccccc12)c1ccccc1 (stereo not shown) [Example 47]
118 to 120 °C	7.92	CCc1c(-c2ccccc2)nc2ccccc2c1C(=O)NC(CC)c1ccccc1 (stereo not shown) [Example 48]
177 to 178 °C	–	CCC(NC(=O)c1cc(-c2ccccc2)nc2ccccc12)c1ccc(Cl)cc1 (stereo not shown) [Example 49]
128 to 129 °C	–	COC(=O)C(c1ccccc1)N(C)C(=O)c1cc(-c2ccccc2)nc2ccccc12 (stereo not shown) [Example 50]
169 to 171 °C	–	COC(=O)C(NC(=O)c1cc(-c2ccsc2)nc2ccccc12)c1ccccc1 (stereo not shown) [Example 51]
217 to 219 °C	–	COC(=O)C(NC(=O)c1c2c(nc3ccccc13)-c1ccccc1CC2)c1ccccc1 (stereo not shown) [Example 52]
181 to 182 °C	–	COC(=O)C(NC(=O)c1cc(-c2ccc[nH]2)nc2ccccc12)c1ccccc1 (stereo not shown) [Example 53]
209 to 211 °C	–	COC(=O)C(NC(=O)c1cc(-c2nccs2)nc2ccccc12)c1ccccc1 (stereo not shown) [Example 54]
155 to 156 °C	–	CCCCC(NC(=O)c1cc(-c2ccccc2)nc2ccccc12)c1ccccc1 (stereo not shown) [Example 56]
172 to 174 °C	–	COC(=O)C(NC(=O)c1cc(-c2ccc(C)cc2)nc2ccccc12)c1ccccc1 (stereo not shown) [Example 57]
180 to 182 °C	–	COC(=O)C(NC(=O)c1cc(-c2ccccc2C)nc2ccccc12)c1ccccc1 (stereo not shown) [Example 59]
182 to 183 °C	–	COC(=O)C(NC(=O)c1cc(-c2ccc(OC)cc2)nc2ccccc12)c1ccccc1 (stereo not shown) [Example 60]
164 to 165 °C	–	O=C(NC1(c2ccccc2)CCCC1)c1cc(-c2ccccc2)nc2ccccc12 [Example 61]
226 to 227 °C	–	COC(=O)C(NC(=O)c1cc(-c2ccc(O)cc2)nc2ccccc12)c1ccccc1 (stereo not shown) [Example 62]
186 to 187 °C	–	COC(=O)C(NC(=O)c1cc(-c2ccc3c(c2)OCO3)nc2ccccc12)c1ccccc1 (stereo not shown) [Example 63]
173 to 174 °C	–	CC(C)(NC(=O)c1cc(-c2ccccc2)nc2ccccc12)c1ccccc1 [Example 64]
160 to 162 °C	–	CCC(NC(=O)c1cc(-c2ccccc2)nc2ccccc12)c1ccc(C)cc1 (stereo not shown) [Example 65]
202 to 204 °C	–	COC(=O)C(NC(=O)c1cc(-c2cc[nH]c2)nc2ccccc12)c1ccccc1 (stereo not shown) [Example 66]

melting point	pKi (NK3 receptor)	Compound
164 to 165 °C	–	COC(=O)C(NC(=O)c1cc(-c2ccc(Cl)c(Cl)c2)nc2ccccc12)c1ccccc1 (stereo not shown) [Example 67]
139 to 141 °C	–	NCC(NC(=O)c1cc(-c2ccccc2)nc2ccccc12)c1ccccc1 (stereo not shown) [Example 68]
137 to 139 °C	–	CCC(NC(=O)c1c(Cl)c(-c2ccccc2)nc2ccccc12)c1ccccc1 (stereo not shown) [Example 70]
119 to 122 °C	–	CCC(NC(=O)c1c(Br)c(-c2ccccc2)nc2ccccc12)c1ccccc1 (stereo not shown) [Example 71]
165 to 166 °C	–	CC(C)C(NC(=O)c1cc(-c2ccccc2)nc2ccccc12)c1ccccc1 (stereo not shown) [Example 72]
174 to 176 °C	–	COC(=O)C(NC(=O)c1cc(-c2ccccc2)nc2ccc(F)cc12)c1ccccc1 (stereo not shown) [Example 75]
151 to 153 °C	–	COC(=O)C(NC(=O)c1cc(C2CCCCC2)nc2ccccc12)c1ccccc1 (stereo not shown) [Example 76]
161 to 163 °C	–	COC(=O)C(NC(=O)c1cc(-c2cccc(Cl)c2)nc2ccccc12)c1ccccc1 (stereo not shown) [Example 77]
175 to 178 °C	–	COC(=O)C(NC(=O)c1cc(-c2ccccc2Cl)nc2ccccc12)c1ccccc1 (stereo not shown) [Example 78]
193 to 194 °C	–	COC(=O)C(NC(=O)c1cc(-c2ccccc2)nc2c(OC(C)=O)cccc12)c1ccccc1 (stereo not shown) [Example 80]
178 to 180 °C	–	COC(=O)C(NC(=O)c1cc(-c2ccccc2)nc2c(O)cccc12)c1ccccc1 (stereo not shown) [Example 81]
142 to 143 °C	–	COC(=O)C(NC(=O)c1cc(-c2ccc(Cl)cc2Cl)nc2ccccc12)c1ccccc1 (stereo not shown) [Example 82]
182 to 184 °C	–	O=C(NC(c1ccccc1)c1ccccc1)c1cc(-c2ccccc2)nc2ccccc12 [Example 84]
125 to 127 °C	–	COC(=O)C(NC(=O)c1c(O)c(-c2ccccc2)nc2ccccc12)c1ccccc1 (stereo not shown) [Example 87]
133 to 135 °C	–	CN(C)CC(NC(=O)c1cc(-c2ccccc2)nc2ccccc12)c1ccccc1 (stereo not shown) [Example 88]
219 to 221 °C	–	CN(C)C(=O)C(NC(=O)c1cc(-c2ccccc2)nc2ccccc12)c1ccccc1 (stereo not shown) [Example 89]
237 to 238 °C	–	NC(=O)C(NC(=O)c1cc(-c2ccccc2)nc2ccccc12)c1ccccc1 (stereo not shown) [Example 90]
199 to 200 °C	–	O=C(NC(C(=O)N1CCCC1)c1ccccc1)c1cc(-c2ccccc2)nc2ccccc12 (stereo not shown) [Example 91]
